Tested on: SW1353 Zellen
Assay: MMP-3 release from IL-1 stimulated SW1353 chondrosarcoma cells (MMP3 ELISA of the culture supernatant)
Assay type: cell-based
Experimental: Für die Analyse der krankheitsmodifizierenden Wirkung von HOE140 in einem Knorpelrelevanten Zellkulturmodel wurde die MMP3 Expression in der Chondrosarcom Zellline SW1353 (ATCC: HTB 94) analysiert. Für die Versuche wurden SW1353 Zellen unter Standard Bedingungen (37°C, 5% CO2) in DMEM-Glutamax mit 10% Fötalem Kälberserum (FKS) in Plastikkulturflaschen kultiviert. Nach ab-trypsinieren der Zellen wurden 50.000 Zellen je well einer 96-well Flachboden Platte in Medium ohne FKS ausgesät und mit der Verbindung HOE140 im Inkubator vorinkubiert. […] Nach 24 Stunden Inkubation unter Standardbedingungen wurde der Zellkulturüberstand abgenommen, 5 Minuten zentrifugiert und bei -20 °C bis zur weiteren Analyse eingefroren. Die Analyse der MMP3 Expression in den Zellkulturüberständen erfolgt dann mittels eines kommerziellen MMP3 ELISA Testsystems (Amersham) nach Angaben des Herstellers. Parallel dazu wurde mit den verbleibenden Zellen ein WST-Zytotoxizitätstest durchgeführt. Dazu wurde das kommerzielle Testsystem der Firma Roche verwendet und die Messung nach Angaben des Herstellerprotokolls durchgeführt.
Die nachfolgende Tabelle 1 zeigt die Ergebnisse. Bradykinin erhöht die MMP3 Freisetzung um mehr als 30%. […] Tabelle 1 MMP-3 Freisetzung aus SW-Zellen

Substance	Erhöhung der MMP3 Freisetzung (Bradykinin added to IL1-stimulated SW cells) [%]	MMP-3 Freisetzung MW (OD450nm) (IL1α + Bradykinin (0,1 µM), no antagonist)	Relativwerte bezogen auf Ausgangswert (IL1α + Bradykinin (0,1 µM), no antagonist, IL1α (0,05 ng/ml) alone = 100)	MMP-3 Freisetzung MW (OD450nm) (IL1α + Bradykinin (0,1 µM) + 0,1 µM HOE140)	Relativwerte bezogen auf Ausgangswert (IL1α + Bradykinin (0,1 µM) + 0,1 µM HOE140, IL1α alone = 100)	MMP-3 Freisetzung MW (OD450nm) (IL1α + Bradykinin (0,1 µM) + 0,05 µM HOE140)	MMP-3 Freisetzung MW (OD450nm) (IL1α + Bradykinin (0,1 µM) + 0,5 µM HOE140)	Relativwerte bezogen auf Ausgangswert (IL1α + Bradykinin (0,1 µM) + 0,05 µM HOE140, IL1α alone = 100)	Relativwerte bezogen auf Ausgangswert (IL1α + Bradykinin (0,1 µM) + 0,5 µM HOE140, IL1α alone = 100)	MMP-3 Freisetzung MW (OD450nm) (IL1α + Bradykinin (0,1 µM) + 1 µM HOE140)	Relativwerte bezogen auf Ausgangswert (IL1α + Bradykinin (0,1 µM) + 1 µM HOE140, IL1α alone = 100)	Hemmung der durch Bradykinin erhöhten Freisetzung von MMP 3 (IL1α + Bradykinin (0,1 µM), 0,05 to 1 µM HOE140)
Bradykinin: natürlich vorkommendes Nonapeptid, das einige pharmakologische Effekte aufweist, die zu Entzündungen und Schmerzen führen (RPPGFSPFR; Bradykinin; UniProt P01042 381-389, looked up) [reference compound]	> 30	433	132,0									
D-Arginyl-L-arginyl-L-prolyl-L-prolylglycyl-3-(2-thienyl)-L-alanyl-L-seryl-(3R)-1,2,3,4-tetrahydro-3-isochinolincarbonyl-(2S,3aS,7aS)-octahydro-1H-indol-2-carbonyl-L-arginin [HOE140]				371	113,1	458	309	139,6	94,2	306	93,3	dosis-abhängig gehemmt

From patent publication EP1594520B1, “USE OF BRADYKININ-B2 RECEPTOR ANTAGONISTS FOR TREATING OSTEOARTHROSIS” (Sanofi-Aventis Deutschland GmbH, priority 2003, dated 2006)
